Results from PMC3629230, “Permeability Enhancers Dramatically Increase Zanamivir Absolute Bioavailability in Rats: Implications for an Orally Bioavailable Influenza Treatment” (PLoS ONE, 2013).
Values joined by “and” are separate entries in the source; they are usually repeats but may differ in a detail not shown here. Identical values can stand only once. “Also recorded” adds a separate entry of the source.

What was measured:
[1] = test system: Caco-2 cell monolayers; experiment: Unidirectional (A-to-B) permeability of zanamivir across Caco-2 cell monolayers with and without excipients; assay type: in vitro ADME; conditions: A-to-B, zanamivir 15 µg/mL
Experimental: Caco-2 cells were obtained from American Type Culture Collection (Rockville, MD). Stock cultures were maintained in flasks with DMEM medium supplemented with 10% FBS, 1% non-essential amino acids, 1 mmol/L sodium pyruvate, 100 IU/mL penicillin, and 100 µg/mL streptomycin in a humidified incubator (37°C, 5% CO2). Cells were harvested by trypsinization and seeded at 60,000 cells/cm^2 onto Costar Transwell® 12-well dual-chamber plates with collagen-coated, microporous polycarbonate membranes (1.13 cm^2 insert area, 0.4 µm pore size; Corning Life Sciences, Acton, MA) for permeability studies. The culture medium was changed three times per week.
Caco-2 cell monolayers that had grown for at least 20 days were subjected to batch quality control testing in which permeation rates were measured for atenolol, digoxin, estrone-3-sulfate, lucifer yellow (LY), and propranolol. In addition, the transepithelial electrical resistance (TEER) across each experimental monolayer was tested prior to an experiment.
Unidirectional (A-to-B) permeability of zanamivir was determined at 15 µg/mL in the absence and presence of varying concentrations of excipients in Caco-2 cell monolayers. The assay buffer was Hanks' balanced salt solution (HBSS) supplemented with 10 mM 4-(2-hydroxyethyl)-1-piperazineethanesulfonic acid (HEPES) and 15 mM D-glucose (HBSSg), pH 7.4. The dosing solutions on the apical side (0.5 mL) contained either zanamivir and excipients at each concentration being tested or zanamivir only (n = 4), while the receiver buffer in the bottom well (1.5 mL) was always excipient-free. The Caco-2 cell monolayers were incubated for 120 min in a humidified incubator (37°C, 5% CO2) after dosing in the apical chambers. Aliquots (200 µL each) of receiver buffer were sampled at 60 min, 90 min, and 120 min after dosing, with replacement by the same volume of blank buffer (at 60 min and 90 min). Donors were sampled at 0 and 120 min.
Experimental samples were identically treated.

[2] = Pharmacokinetics and absolute bioavailability after intraduodenal administration in rats; conditions: for Cmax / Tmax / AUC(0-t) / AUC(0-inf) / half-life / bioavailability: male, Sprague-Dawley, rat, plasma; for AUC(0-t): AUClast; for half-life: t1/2, intraduodenal; for bioavailability: other: intraduodenal, absolute, vs 1.5 mg intravenous
Source text: Male Sprague-Dawley rats (Hilltop Labs, Scottdale, PA), 3 animals per treatment group, 250–350 grams in weight, were fitted with a jugular vein cannula (JVC). Animals intended for intraduodenal dosing were also fitted with one or more intraduodenal cannula (IDC) and those intended for intravenous dosing were fitted with a second JVC. Food was withheld from the animals for a minimum of twelve hours prior to test article administration and was returned approximately four hours post-dose. Water was supplied ad libitum.
Intraduodenal doses composed of 1.5 mg of zanamivir and varying amounts of an enhancer (glycerol or Capmul MCM L8) were injected directly into the duodenum via the IDC. To determine absolute bioavailability of the intraduodenal administered drug, intravenous dosing was conducted by the injection of 1.5 mg of zanamivir in 200 µL of PBS through a JVC. For some experiments, the absorption enhancer was administered intraduodenally 2 hr prior to administering 1.5 mg of zanamivir in PBS through a second IDC. Each intraduodenal dose was followed with the introduction of a small air bubble (∼10 µL) in the cannula followed by a flush of 125 µL of PBS to ensure the dose was given in full. The volume of PBS used for cannula flush was consistent across the treatment groups. The cannula was tied to prevent the PBS remaining in the cannula from entering the duodenum.
Blood samples collected via the JVC, approximately 400 µL each, were obtained at 2 min, 5 min, 15 min, 30 min, 60 min, 90 min, and 120 min, with sodium heparin used as an anti-coagulant. Each sample was placed into a chilled tube containing the anticoagulant and kept on ice until centrifugation at 4°C, 3,000× g, for 5 min. The plasma supernatants were stored at −70°C until LC-MS analysis.
Dosing solution samples were assayed by liquid chromatography-mass spectrometry (LC-MS/MS) using electrospray ionization. The chromatographic system consisted of Perkin Elmer series 200 micropumps and autosampler equipped with a Waters Atlantic® HILIC Silica […], 2.1×50 mm column. The mass spectrometer was a PE Sciex API 4000 with electrospray interface in multiple reaction monitoring mode. […] Stock solutions (1 mg/mL zanamivir) were prepared in water. Standards (eight concentrations) were prepared in the appropriate matched matrix (HBSSg or Sprague-Dawley rat plasma containing sodium heparin) and diluted 50-fold with methanol. Experimental samples were identically treated.

[3] = cited from earlier work
[4] = intraduodenal, 1.5 mg/animal in PBS, Capmul MCM L8 given 2 hr prior
[5] = intraduodenal, 1.5 mg/animal in PBS, glycerol given 2 hr prior
[6] = intraduodenal, 1.5 mg/animal, 50 µL vehicle Capmul MCM L8
[7] = intraduodenal, 1.5 mg/animal, 50 µL vehicle PBS
[8] = intraduodenal, 1.5 mg/animal, 50 µL vehicle glycerol
[9] = 0.75 mg, Figure 5 experiment, intraduodenal, 0.75 mg zanamivir, 50 µL Capmul MCM L8
[10] = 1.5 mg, intraduodenal, 1.5 mg/animal in PBS, Capmul MCM L8 given 2 hr prior
[11] = 1.5 mg, intraduodenal, 1.5 mg/animal in PBS, glycerol given 2 hr prior
[12] = 1.5 mg, intraduodenal, 1.5 mg/animal, 50 µL vehicle Capmul MCM L8
[13] = 1.5 mg, intraduodenal, 1.5 mg/animal, 50 µL vehicle PBS
[14] = 1.5 mg, intraduodenal, 1.5 mg/animal, 50 µL vehicle glycerol
[15] = 1.5 mg, Figure 5 experiment, intraduodenal, 1.5 mg zanamivir, 50 µL Capmul MCM L8
[16] = 3 mg, Figure 5 experiment, intraduodenal, 3.0 mg zanamivir, 50 µL Capmul MCM L8

SMILES: CC(=O)N[C@H]1[C@H]([C@H](O)[C@H](O)CO)OC(C(=O)O)=C[C@@H]1N=C(N)N [Zanamivir, zanamivir]
- Increase in apparent permeability coefficient (Papp) compared to no-enhancer control ([1]; 0.25% Capmul MCM L8, pH 7.4): > 5 fold and 5.2 fold
- Increase in apparent permeability coefficient (Papp) compared to no-enhancer control ([1]; 5% glycerol, pH 7.4): > 5 fold and 5.6 fold
- Absolute bioavailability relative to negative control ([2]; both enhancers (glycerol, Capmul MCM L8) given 2 hr prior to zanamivir): equivalent to that of the negative control
- Absorption enhancement ([2]; enhancer (glycerol or Capmul MCM L8) given intraduodenally 2 hr prior to 1.5 mg zanamivir in PBS): No absorption enhancement; also recorded: no enhanced absorption
- Increase of absolute bioavailability compared to PBS ([2]; intraduodenal, 1.5 mg zanamivir in 50 µL glycerol): 4.7 fold
- Dose-normalized AUClast [2, 4]: 12.7 kg·ng·h/mL/mg
- Dose-normalized AUC∞ [2, 4]: 13 kg·ng·h/mL/mg
- Dose-normalized AUClast [2, 5]: 21.1 kg·ng·h/mL/mg
- Dose-normalized AUC∞ [2, 5]: 29.1 kg·ng·h/mL/mg
- Dose-normalized AUClast [2, 6]: 715 kg·ng·h/mL/mg
- Dose-normalized AUC∞ [2, 6]: 753 kg·ng·h/mL/mg
- Dose-normalized AUClast [2, 7]: 30.6 kg·ng·h/mL/mg
- Dose-normalized AUC∞ [2, 7]: 46.6 kg·ng·h/mL/mg
- Dose-normalized AUClast [2, 8]: 145 kg·ng·h/mL/mg
- Dose-normalized AUC∞ [2, 8]: 153 kg·ng·h/mL/mg
- Cmax [2, 9]: 1430 ng/mL
- Tmax [2, 9]: 4.8 min
- AUC(0-t) [2, 10]: 66.1 ng·h/mL
- AUC(0-t) [2, 11]: 112 ng·h/mL
- AUC(0-t) [2, 12]: 3800 ng·h/mL
- AUC(0-t) [2, 13]: 162 ng·h/mL
- AUC(0-t) [2, 14]: 754 ng·h/mL
- AUC(0-inf) [2, 10]: 69.8 ng·h/mL
- AUC(0-inf) [2, 11]: 156 ng·h/mL
- AUC(0-inf) [2, 12]: 4000 ng·h/mL
- AUC(0-inf) [2, 13]: 244 ng·h/mL
- AUC(0-inf) [2, 14]: 781 ng·h/mL
- Cmax ([2]; 1.5 mg, Figure 4 experiment, intraduodenal, 1.5 mg zanamivir, 25 µL Capmul MCM L8): 1650 ng/mL
- Cmax ([2]; 1.5 mg, Figure 4 experiment, intraduodenal, 1.5 mg zanamivir, 50 µL Capmul MCM L8): 2120 ng/mL
- Cmax ([2]; 1.5 mg, Figure 4 experiment, intraduodenal, 1.5 mg zanamivir, 75 µL Capmul MCM L8): 2570 ng/mL
- Cmax [2, 15]: 3920 ng/mL
- Cmax [2, 10]: 48.6 ng/mL
- Cmax [2, 11]: 77.4 ng/mL
- Cmax [2, 12]: 7230 ng/mL
- Cmax [2, 13]: 134 ng/mL
- Cmax [2, 14]: 948 ng/mL
- half-life ([2]; 1.5 mg, 1.5 mg/animal in PBS, Capmul MCM L8 given 2 hr prior): 51.6 min
- half-life ([2]; 1.5 mg, 1.5 mg/animal in PBS, glycerol given 2 hr prior): 74.4 min
- half-life ([2]; 1.5 mg, 1.5 mg/animal, 50 µL vehicle Capmul MCM L8): 29.4 min
- half-life ([2]; 1.5 mg, 1.5 mg/animal, 50 µL vehicle PBS): 49.8 min
- half-life ([2]; 1.5 mg, 1.5 mg/animal, 50 µL vehicle glycerol): 17.4 min
- Tmax [2, 15]: 4.8 min
- Tmax ([2]; 1.5 mg, intraduodenal, 1.5 mg zanamivir mixed with Capmul MCM L8): 5 min
- Tmax [2, 10]: 60 min
- Tmax [2, 11]: 34.8 min
- Tmax [2, 12]: 4.8 min
- Tmax [2, 13]: 30 min
- Tmax [2, 14]: 30 min
- Cmax ([2]; 1.5 mg/animal, intraduodenal, 50 µL vehicle Capmul MCM L8): > 7200 ng/mL
- Cmax [2, 16]: 7000 ng/mL
- Tmax [2, 16]: 8.4 min
- bioavailability [2, 10]: 0.66%
- bioavailability [2, 11]: 1.1%
- bioavailability [2, 12]: 37.7%
- bioavailability [2, 13]: 1.59%
- bioavailability [2, 14]: 7.53%
- Oral bioavailability [3]: under 2%
